Measured values: PMC7497625, “Machine-Vision-Enabled Salt Dissolution Analysis” (Analytical Chemistry, 2020)
≈ marks a conversion by molar mass, not a printed value. Marks after values point to notes of the source that are not given here.

Assays:
[1] = Machine-vision-based single-particle analysis (SPA) solubility measurement, pH-solubility profile; assay type: physicochemical
Method: The SPA measurements were carried out as already previously described by Svanbäck et al. and Štukelj et al.[17],[19],[20] Briefly, the two main components of the SPA method are the flow-through setup and the analysis software. The flow-through setup enables trapping and machine-vision tracking of drug particles under steady flow–sink–conditions. The average measurement time is 5 min. The captured images are then analyzed using custom-made software, which is capable of semiautomatic particle recognition and tracking of the individual particle morphology throughout the measurement. The decrease in size, under sink conditions, according to Noyes and Whitney, is directly proportional to the equilibrium solubility of the compound. In this way, the solubility data from the images is extracted. Depending on the number of particles, the reported solubility values are an average of up to several hundred individual particles. For in-depth description and visuals, readers are directed to the three original papers cited above.

[2] = Miniaturized shake-flask (SF) experiment in USP buffers with HPLC-UV, pH measurement and XRPD of remaining solids; assay type: physicochemical
Method: For NAP, both phosphate and borate buffers were used at pH 8.0. […] At 48, 72, and 96 h the rotation was stopped, pHs were measured, and samples were centrifuged at constant temperature and 21 100g for 15 min prior to sampling of the supernatant. The supernatants were appropriately diluted and analyzed with reverse-phase HPLC-UV. After 96 h, the solids were extracted and analyzed using XRPD. […] Drug concentration in the supernatants was determined using an Agilent High Performance Liquid Chromatography (HPLC) 1260 system (Agilent Technologies, Germany) coupled with a Phenomenex Gemini NX-C18, 3 μm, 100 × 4.6 mm column (Phenomenex, Torrace, CA). The temperature of the column was set to 30 °C. The mobile phase was 0.2% H3PO4:acetonitrile (40:60, v:v for DIC and 50:50, v:v for NAP) with a flow rate of 1 mL/min. The injection volume was 20 μL, and detection was performed at 276 nm for DIC and 254 nm for NAP. Standard solutions of DIC and NAP were prepared in 0.2% H3PO4:acetonitrile (50:50, v:v) and analyzed with HPLC-UV to construct the calibration curve. […] To determine the solid-state form of the initial samples, XRPD diffractograms were recorded with an Aeris diffractometer (Malvern Panalytical B.V., Almelo, The Netherlands) using Cu Kα radiation (λ = 1.540598 Å) and a divergence slit of 0.76 mm. […] Measurements were performed in triplicate with independent samples. Additional measurements using XRPD were performed for the remaining solids after the 96 h miniaturized SF experiments.

[3] = cited from earlier work
[4] = 0.05 M USP buffer Borate pH 8.0
[5] = 0.05 M USP buffer Borate pH 9.0
[6] = 0.05 M USP buffer Phosphate pH 6.0
[7] = 0.05 M USP buffer Phosphate pH 7.0
[8] = 0.05 M USP buffer Phtalate pH 3.0
[9] = 0.05 M USP buffer Phtalate pH 4.0
[10] = 0.05 M USP buffer Phtalate pH 5.0
[11] = starting material free acid, after 96 h

Compound	pHmax′ SPA (apparent pHmax) ([1]; intersect of the two regions of the SPA pH-solubility profile, started with anhydrous salt)	pHmax ([1]; linear extrapolation of pH-corrected SPA values of free acid to the SF-determined solubility of the salt (Figure 2b / 5b))	SPA solubility upon disproportionation compared to the free acid ([1]; region below pH 8)	solid-state form at end of SF experiment (XRPD) ([2]; starting material anhydrous salt, initial pH 6.0 and 8.0)	solid-state form at end of SF experiment (XRPD) ([2]; starting material salt, initial pH 2.0 and 4.0)	pHmax lit. [3]	solubility at 5 min ([1]; read-out: S0 SPA (intrinsic solubility)) [µg/mL]	Measured pH of miniaturized SF experiment [2, 4]	Measured pH of miniaturized SF experiment [2, 5]	Measured pH of miniaturized SF experiment ([2]; 0.05 M USP buffer HCl pH 2.0)	Measured pH of miniaturized SF experiment [2, 6]	Measured pH of miniaturized SF experiment [2, 7]	Measured pH of miniaturized SF experiment [2, 8]	Measured pH of miniaturized SF experiment [2, 9]	Measured pH of miniaturized SF experiment [2, 10]	solid-state form at end of SF experiment (XRPD) [2, 11]	solid-state form at end of SF experiment (XRPD) ([2]; starting material anhydrous salt, pH 8.0, borate and phosphate buffer)	solid-state form at end of SF experiment (XRPD) ([2]; starting material salt, initial pHs 2.0, 4.0 and 6.0)	Measured pH of miniaturized SF experiment ([2]; 0.05 M USP buffer Phosphate pH 8.0)
O=C(O)Cc1ccccc1Nc1c(Cl)cccc1Cl [diclofenac sodium]	7.35	7.98	higher solubility upon disproportionation	converted into its hydrate form	converted into a free acid form	∼8 ^a^, ^e													
O=C(O)Cc1ccccc1Nc1c(Cl)cccc1Cl [diclofenac, Diclofenac]							0.6 ± 0.3 (≈ 2.03 µM)	7.0	7.8	2.0	6.0	6.9	3.00	4.0	4.9	remained in the same form throughout the experiment			
COc1ccc2cc([C@H](C)C(=O)O)ccc2c1 [naproxen sodium]						∼8 ^c											converted into its hydrate form	converted into a free acid	
COc1ccc2cc([C@H](C)C(=O)O)ccc2c1 [naproxen, Naproxen]								6.0	6.8	1.9	5.8	6.6	3.0	4.1	5.0	the same form remained throughout the experiment			6.9
